Reference: ChEMBL document CHEMBL1687706, “Inhibition of human immunodeficiency virus type 1 replication in human cells by Debio-025, a novel cyclophilin binding agent” (Antimicrob Agents Chemother, 2008)
pIC50: −log10 of the molar value. The source made the active and inactive calls. No cut-off for these calls is given here.

Columns and labels:
[1] = system: Human respirovirus 3; experiment: Antiviral activity against Parainfluenza 3 infected in african green monkey Vero cells assessed as inhibition of viral replication; assay type: functional, organism-based; conditions: Human respirovirus 3, Vero
[2] = Cytotoxicity against human Huh 5.2 cells; assay type: cell-based, Huh-5-2; conditions: read-out: TC50 (the source's name)
[3] = system: Human immunodeficiency virus 1; experiment: Antiviral activity against HIV1 subtype G Jv1083 infected in human PBMC assessed as inhibition of viral replication by ELISA; assay type: functional, organism-based; conditions: Human immunodeficiency virus 1, subtype G Jv1083
[4] = system: Jurkat; experiment: Immunosuppressive activity in human Jurkat cells assessed as inhibition of PHA-phorbol myristate acetate induced beta-galactosidase activity at 21.5 uM; assay type: functional, cell-based
[5] = system: Human alphaherpesvirus 1; experiment: Antiviral activity against Herpes simplex virus 1 KOS infected in human embryonic lung cells assessed as inhibition of viral replication; assay type: functional, organism-based; conditions: Human alphaherpesvirus 1, KOS
[6] = system: Human immunodeficiency virus 1; experiment: Antiviral activity against HIV1 subtype O BCF01 infected in human PBMC assessed as inhibition of viral replication by ELISA; assay type: functional, organism-based; conditions: Human immunodeficiency virus 1, subtype O BCF01
[7] = Antiviral activity against HPV-33 infected in CK1 cells assessed as inhibition of viral replication after 7 days; assay type: functional, Human papillomavirus type 33; conditions: human papillomavirus 33, CK1, 168 h; read-out: TC50 (the source's name)
[8] = system: Human immunodeficiency virus 1; experiment: Antiviral activity against HIV1 subtype B NL4-3 infected in human PBMC assessed as inhibition of viral replication by ELISA; assay type: functional, organism-based; conditions: Human immunodeficiency virus 1, subtype B NL4-3
[9] = system: Human immunodeficiency virus 1; experiment: Antiviral activity against HIV-1 NL4-3 infected in human TZB cells assessed as inhibition of accumulation of late viral transcripts at 0.5 to 2.5 uM by RT-PCR; assay type: functional, organism-based
[10] = system: Human papillomavirus type 16; experiment: Antiviral activity against HPV-16 infected in Caski cells assessed as inhibition of viral replication after 7 days; assay type: functional, Human papillomavirus 16
[11] = system: Human immunodeficiency virus 1; experiment: Antiviral activity against HIV1 subtype B SF162 infected in human PBMC assessed as inhibition of viral replication by ELISA; assay type: functional; conditions: Human immunodeficiency virus 1, SF162 ISOLATE
[12] = system: Rattus norvegicus; experiment: Immunosuppressive activity in Sprague-Dawley rat […] model assessed as percent T lymphocytes at 50 mg/kg, po administered once daily for 28 days by flow cytometry; assay type: functional
[13] = system: Vesicular stomatitis virus; experiment: Antiviral activity against VSV infected in human embryonic lung cells assessed as inhibition of viral replication; assay type: functional, organism-based
[14] = system: Human immunodeficiency virus 1; experiment: Antiviral activity against HIV-1 NL4-3 infected in human TZB cells assessed as inhibition of viral entry at 0.5 to 2.5 uM after 2 hrs by RT-PCR; assay type: functional, organism-based
[15] = system: Human immunodeficiency virus 1; experiment: Antiviral activity against LPV, APV, ATV, IDV, NFV, RTV, SQV, AZT, ddI, 3TC, d4T-resistant HIV-1 MDR3761 infected in human PBMC assessed as inhibition of viral replication by ELISA; assay type: functional, organism-based; conditions: Human immunodeficiency virus 1, MDR3761
[16] = system: Human immunodeficiency virus 1; experiment: Antiviral activity against HIV1 subtype F 93BR020 infected in human PBMC assessed as inhibition of viral replication by ELISA; assay type: functional, organism-based; conditions: Human immunodeficiency virus 1, subtype F 93BR020
[17] = system: Human respiratory syncytial virus; experiment: Antiviral activity against RSV infected in human HeLa cells assessed as inhibition of viral replication
[18] = system: Bovine viral diarrhea virus 1; experiment: Antiviral activity against BVDV infected in […] cells assessed as inhibition of viral replication; assay type: functional, organism-based; conditions: Bovine viral diarrhea virus isolates and strains
[19] = Antiviral activity against Simian immunodeficiency virus-mac 251 infected in human PBMC assessed as inhibition of viral replication by RT activity; assay type: functional
[20] = system: Simian immunodeficiency virus; experiment: Antiviral activity against Simian immunodeficiency virus PBj infected in human PBMC assessed as inhibition of viral replication by RT activity; assay type: functional, organism-based
[21] = system: Human immunodeficiency virus 1; experiment: Antiviral activity against ABC, ddC, ddI, TDF, AZT, d4T-resistant HIV-1 G910-6 infected in human PBMC assessed as inhibition of viral replication by ELISA; assay type: functional, organism-based; conditions: Human immunodeficiency virus 1, G910-6
[22] = system: Human immunodeficiency virus 1; experiment: Antiviral activity against HIV1 subtype B JR-CSF infected in human PBMC assessed as inhibition of viral replication by ELISA; assay type: functional; conditions: Human immunodeficiency virus 1, JRCSF ISOLATE
[23] = Cytotoxicity against human embryonic lung cells; assay type: cell-based; conditions: read-out: TC50 (the source's name)
[24] = system: Rattus norvegicus; experiment: Immunosuppressive activity in Sprague-Dawley rat […] model assessed as IgM level at 25 mg/kg, po administered once daily for 28 days by ELISA; assay type: functional
[25] = system: Rattus norvegicus; experiment: Immunosuppressive activity in Sprague-Dawley rat […] model assessed as IgM level at 50 mg/kg, po administered once daily for 28 days by ELISA; assay type: functional
[26] = system: Influenza B virus; experiment: Antiviral activity against influenza B virus infected in MDCK cells assessed as inhibition of viral replication; assay type: functional, organism-based
[27] = system: Human immunodeficiency virus 1; experiment: Antiviral activity against HIV1 subtype B 92BR014 infected in human PBMC assessed as inhibition of viral replication by ELISA; assay type: functional, organism-based; conditions: Human immunodeficiency virus 1, subtype B 92BR014
[28] = system: Influenza A virus; experiment: Antiviral activity against Influenza A virus H1N1 infected in MDCK cells assessed as inhibition of viral replication; assay type: functional, organism-based
[29] = system: Rattus norvegicus; experiment: Immunosuppressive activity in Sprague-Dawley rat […] model assessed as percent T lymphocytes at 25 mg/kg, po administered once daily for 28 days by flow cytometry; assay type: functional
[30] = system: Human papillomavirus type 16; experiment: Antiviral activity against HPV-16 infected in Caski cells assessed as inhibition of viral replication after 3 days; assay type: functional, organism-based, Human papillomavirus 16
[31] = system: Human immunodeficiency virus 1; experiment: Antiviral activity against APV, ATV, IDV, LPV, NFV, RTV, SQV, 3TC, FTC, ABC, AZT, d4T, ddC, ddI, TDF, EFV, DLV, NVP-resistant HIV-1 MDR769 infected in human PBMC assessed as inhibition of viral replication by ELISA; assay type: functional, organism-based; conditions: Human immunodeficiency virus 1, MDR769
[32] = system: Influenza A virus; experiment: Antiviral activity against Influenza A virus H3N2 infected in MDCK cells assessed as inhibition of viral replication; assay type: functional, organism-based
[33] = system: Human immunodeficiency virus 1; experiment: Antiviral activity against HIV1 subtype D 92UG046 infected in human PBMC assessed as inhibition of viral replication by ELISA; assay type: functional, organism-based; conditions: Human immunodeficiency virus 1, subtype D 92UG046
[34] = system: Human immunodeficiency virus 1; conditions: Human immunodeficiency virus 1, 3B
[35] = system: Rattus norvegicus; experiment: Immunosuppressive activity in Sprague-Dawley rat KHL model assessed as percent cytotoxic T cells at 10 mg/kg, po administered once daily for 28 days by flow cytometry; assay type: functional, T-cell
[36] = system: Hepatitis C virus; experiment: Antiviral activity against HCV infected in human Huh 5.2 cells assessed as reduction in viral RNA level by luciferase reporter gene assay; assay type: functional, organism-based, Hepacivirus hominis; conditions: Huh-5-2
[37] = system: Feline coronavirus; experiment: Antiviral activity against Feline coronavirus infected in CRFK assessed as inhibition of viral replication; assay type: functional, organism-based; conditions: Alphacoronavirus 1, CRFK
[38] = system: Human immunodeficiency virus 1; experiment: Antiviral activity against HIV1 subtype A 92UG037 infected in human PBMC assessed as inhibition of viral replication by ELISA; assay type: functional, organism-based; conditions: Human immunodeficiency virus 1, subtype A 92UG037
[39] = system: Coxsackievirus; experiment: Antiviral activity against Coxsackie B3 infected in african green monkey Vero cells assessed as inhibition of viral replication; assay type: functional, organism-based

In the case of `C/C=C/C[C@@H](C)[C@@H](O)[C@H]1C(=O)N[C@@H](CC)C(=O)N(C)[C@H](C)C(=O)N(CC)[C@@H](C(C)C)C(=O)N[C@@H](C(C)C)C(=O)N(C)[C@@H](CC(C)C)C(=O)N[C@@H](C)C(=O)N[C@H](C)C(=O)N(C)[C@@H](CC(C)C)C(=O)N(C)[C@@H](CC(C)C)C(=O)N(C)[C@@H](C(C)C)C(=O)N1C` [ALISPORIVIR], the pIC50 [1] was < 4.60, the CC50 [2] was 22 µM and the pIC50 [3] was 5.26. For the same compound, the inhibition [4] was “Active”, the pIC50 [5] was < 4.60 and the pIC50 [6] was 5.20. For the same compound, the CC50 [7] was 0.6 µM, the pIC50 [8] was 8.00 and the inhibition [9] was “Active”. It also gave a TC50 [10] of 0.6 µM, a pIC50 [11] of 7.82 and an Activity [12] of 50%. The pIC50 [13] was < 4.60, the inhibition [14] was “inactive” and the pIC50 [15] was 6.80. The pIC50 [16] was 5.20, the pIC50 [17] was < 5.09 and the pIC50 [18] was < 4.60. The pIC50 [19] was 5.08, the pIC50 [20] was 5.10 and the pIC50 [21] was 7.54. It also gave a pIC50 [22] of 7.82, a CC50 [23] of 25 µM and a deltaA [24] of 0.78. For the same compound, the deltaA [25] was 0.67, the pIC50 [26] was < 5.00 and the pIC50 [27] was 5.25. The pIC50 [28] was < 5.00, the Activity [29] was 53.4% and the TC50 [30] was 1.2 µM. The pIC50 [31] was 7.92, the pIC50 [32] was < 5.00 and the pIC50 [33] was 8.00. The pIC50 [34] was 7.19, the Activity [35] was 17.6% and the pIC50 [36] was 6.66. The pIC50 [37] was 5.66, the pIC50 [38] was 7.80 and the pIC50 [39] was < 4.60.
